Assay results published in patent US20230070582A1, “UTILIZATION OF FGF ACTIVATORS IN CULTURE MEDIA” (Yissum Research Development Company of the Hebrew …, priority 2020, published 2023).

Tests used:
[1] = test system: Bovine fibroblasts adapted to suspension culture; assay: Bovine fibroblast cell growth in serum-free suspension culture, cell count on Day 3; type: cell-based; details: Day 3 count, FIG. 1
Procedure: Effects of ID-8 and/or FK-506 (alone or combined) on bovine fibroblast cell growth were evaluated. Bovine fibroblasts adapted to suspension culture were seeded in 0.3 millions/ml in a total volume of 20 ml in cell culture flasks. The flasks were kept in a shaker incubator with 100 rpm, 37° C., and 5% CO2. Cell counts were done on Day 3 using automatic cell counter (Cellaca®) with APOI staining to eliminate the dead cells from the counts.

[2] = test system: ovine fibroblasts; assay: XTT cell proliferation assay, ovine fibroblasts 2D culture, gradient concentrations; type: cell-based; details: FIG. 3
Procedure: The effects of gradient concentration of both small molecules (ID-8 and FK-506) in ranges from about 1-50 μM for ID-8 and about 1-50 nM for FK-506 were tested on ovine fibroblasts 2D culture. Ovine fibroblasts were seeded in 96-well plate at a density of 1000 cells/well. ID-8 and FK-506 in serum free medium were incubated with the fibroblast cells for 48 hours before adding XTT (cell proliferation assay from Biological Industries, Israel) according to company protocol. Colorimetric signal was measured after 8 hours of XTT addition. Blank (medium only) measurements were subtracted from the sample measurements (n=4).

[3] = test system: mouse ESCs; details: serum-free culture; Miyabayashi et al. 2008; cited from earlier work
[4] = test system: FGF pathway; details: by activating ERK pathway; zebrafish heart model; Molina et al. 2009; cited from earlier work

COc1ccc(-n2c(C)c([N+](=O)[O-])c3ccc(O)cc32)cc1 [ID-8]
effect on bovine fibroblast cell growth as compared to FGF (10 ng/ml) ([1]; ID-8 alone 1 μM): comparable effect | ovine fibroblast cell growth versus control (no FGF) ([2]; higher concentrations of ID-8, e.g. 10 μM or 50 μM): more cell growth than the control | concentration of ID-8 giving the best cell growth (optimal concentration) ([2]; in combination with FK-506, 48 hours): 1 to 5 µM | self-renewal of mouse ESCs [3]: support self-renewal

C=CC[C@@H]1/C=C(\C)C[C@H](C)C[C@H](OC)[C@H]2O[C@@](O)(C(=O)C(=O)N3CCCC[C@H]3C(=O)O[C@H](/C(C)=C/[C@@H]3CC[C@@H](O)[C@H](OC)C3)[C@H](C)[C@@H](O)CC1=O)[C@H](C)C[C@@H]2OC [FK-506, Tacrolimus]
effect on bovine fibroblast cell growth as compared to FGF (10 ng/ml) ([1]; FK-506 alone 2 nM): didn't obtain a comparable effect | effect on ovine fibroblast cell growth ([2]; higher concentration of FK-506, e.g. 5 nM, 20 nM or 50 nM, with ID-8 at 1 μM): did not show significant effect on cell growth | concentration of FK-506 giving the best cell growth (optimal concentration) ([2]; in combination with ID-8, 48 hours): 1 to 2 nM

Cl.O=C1/C(=C/c2ccccc2)C(NC2CCCCC2)c2ccccc21 (mixture of isomers) [(E/Z)-BCI hydrochloride]
effect on FGF pathway [4]: hyperactivates FGF pathway
